Source: paper PMC4403042, “Atrial-like cardiomyocytes from human pluripotent stem cells are a robust preclinical model for assessing atrial-selective pharmacology” (EMBO Molecular Medicine, 2015)

Legend:
hESC-atrial CMs = assay: Action potential recording (amphotericin-B-perforated patch-clamp) in hESC-atrial CMs; assay type: cell-based, human; details: for reversibility of AP changes: washout
Protocol: (§1) Spin EBs resulting from control and RA-treated differentiations were dissociated at day 17 to single cells using TrypLE™ Select (Life Technologies) and plated on gelatin-coated coverslips. Electrophysiological measurements were performed 10–14 days after dissociation from intrinsically quiescent single GFP^+ CMs that were able to contract upon field stimulation.
(§2) APs and membrane currents from hESC-CMs were recorded with the amphotericin-B-perforated patch-clamp technique at 36 ± 0.2°C using an Axopatch 200B amplifier (Molecular Devices, Sunnyvale, CA, USA). Cells were superfused with Tyrode's solution containing (in mmol/l) NaCl 140, KCl 5.4, CaCl2 1.8, MgCl2 1.0, glucose 5.5, and HEPES 5.0; pH was adjusted to 7.4 with NaOH. Pipettes (borosilicate glass; resistance 2–3 MΩ) were heat polished and filled with solution containing (in mmol/l) K-gluconate 125, KCl 20, NaCl 5, amphotericin-B 0.22 and HEPES 10; pH was adjusted to 7.2 with KOH. AP measurements were low-pass-filtered (cutoff frequency 10 kHz) and digitized at 40 kHz; membrane currents were measured at 1 and 4 kHz, respectively. Capacitance and series resistance were compensated by ≥ 80%, and APs were corrected for the calculated liquid junction potential (Barry & Lynch, [1991]). Voltage control, data acquisition and analysis were accomplished using custom software. Cell membrane capacitance (Cm) was estimated by dividing the time constant of the decay of the capacitive transient in response to 5 mV hyperpolarizing voltage clamp steps from −40 mV by the series resistance.
(§3) APs were elicited at 0.5 to 4 Hz by 3 ms, ∼1.2× threshold current pulses through the patch pipette. APs were characterized, as depicted in Fig2A, by resting membrane potential (RMP), maximum upstroke velocity (dV/dtmax), maximum AP amplitude (APAmax), AP plateau amplitude (APAplat, defined as the potential difference between RMP and potential at 20 ms after the upstroke), and the duration at 20, 50 and 90% repolarization (APD20, APD50, and APD90, respectively). Parameter values obtained from 10 consecutive APs were averaged. […]
(§4) (1:2000, Sigma) was performed in TBS-0.05% Tween 20 containing 2% nonfat milk for 1 hour at room temperature. The corresponding secondary antibody conjugated to horseradish peroxidase (HRP) (1:2000; anti-mouse-HRP (#7076), Cell Signaling) was incubated for 1 h at room temperature in 2% nonfat milk. Blots were developed on X-ray films by using a chemiluminescent detection system (ECL; GE Life Science, […]
(§5) The effects of drugs were tested in paired measurements 5 minutes after the onset of bath application. 4-AP was prepared as a 50 mmol/L stock solution in Tyrode’s solution, and pH adjusted to 7.4, with the addition of HCl. CCh, a muscarinic receptor agonist, was prepared as a 10 mmol/L stock solution in Tyrode’s solution. Nifedipine was prepared as a 10 mmol/L stock solution in DMSO and stored at 4 °C. Stock solutions for the other compounds were prepared in DMSO: Vernakalant (30 mmol/L), XEN- D0101 (3 mmol/L), XEN-R0703 (2 mmol/L) and […]. All stock solutions were diluted appropriately before use.
(§6) Recombinant ion channel pharmacology
(§7) Studies were conducted at room temperature using the whole-cell patch-clamp technique. HEK293 cells expressing Kir3.1/3.4, Kir2.1, and CHO cells expressing Nav1.2, Cav1.2 or hERG were used.

hESC-ventricular CMs = assay: Action potential recording (amphotericin-B-perforated patch-clamp) in hESC-ventricular CMs; assay type: cell-based, human; details: 1 Hz; for APAmax / APAplat / APD20 / dV/dtmax / APD50 / APD90: hESC-VM, n=5, mean±SEM
Protocol: as §1, §2, §3, §4, §5, §6, §7

[1] = hESC-AM, 4-AP 50 μmol/l, 1 Hz, n=5, mean±SEM, Table S5
[2] = hESC-AM, CCh 10 μmol/l, 1 Hz, n=4, mean±SEM, Table S9
[3] = hESC-AM, CCh 10 μmol/l, 1 Hz, n=5, mean±SEM, Table S5
[4] = XEN-D0101 3 μmol/l, 1 Hz, vs pre-drug
[5] = hESC-AM, XEN-D0101 3 μmol/l, 1 Hz, n=5, mean±SEM, Table S7
[6] = hESC-AM, vernakalant 30 μmol/l, 1 Hz, n=5, mean±SEM, Table S6
[7] = vernakalant 30 μmol/l, 1 Hz, vs pre-drug
[8] = vernakalant 30 μmol/l, Table S6

Nc1ccncc1 [4-AP, 4-aminopyridine]
APAmax (hESC-atrial CMs; [1]): 94.6±3.0 mV | APAplat (hESC-atrial CMs; [1]): 86.4±6.5 mV | APD20 (hESC-atrial CMs; [1]): 41.6 ± 8.1 ms | APD50 (hESC-atrial CMs; [1]): 72 ± 13 ms | APAmax (hESC-ventricular CMs; 4-AP 50 μmol/l, Table S5): 99.0±4.0 mV | APAplat (hESC-ventricular CMs; 4-AP 50 μmol/l, Table S5): 99.8±5.8 mV | APD20 (hESC-ventricular CMs; 4-AP 50 μmol/l, Table S5): 83.1 ± 15.1 ms | dV/dtmax (hESC-ventricular CMs; 4-AP 50 μmol/l, Table S5): 49.9±11.1 V/s

C[N+](C)(C)CCOC(N)=O [CCh, carbachol]
APAmax (hESC-atrial CMs; [2]): 88.9±1.4 mV | APAplat (hESC-atrial CMs; [2]): 72.4±3.1 mV | APD20 (hESC-atrial CMs; [2]): 23.9 ± 4.6 ms | APD50 (hESC-atrial CMs; [2]): 68.1 ± 7.7 ms | APD90 (hESC-atrial CMs; [2]): 141.2 ± 12.4 ms | dV/dtmax (hESC-atrial CMs; [2]): 40.0±5.2 V/s | APAmax (hESC-atrial CMs; [3]): 89.1±1.1 mV | APAplat (hESC-atrial CMs; [3]): 72.6±2.3 mV | APD20 (hESC-atrial CMs; [3]): 25.4 ± 3.8 ms | APD50 (hESC-atrial CMs; [3]): 67 ± 6 ms | dV/dtmax (hESC-ventricular CMs; CCh 10 μmol/l): 129.9±54 V/s | APAmax (hESC-ventricular CMs; CCh 10 μmol/l, Table S5): 104.4±9.1 mV | APD20 (hESC-ventricular CMs; CCh 10 μmol/l, Table S5): 112.9 ± 18.0 ms | APAmax (hESC-ventricular CMs; CCh 10 μmol/l, Table S9): 110.5±7.8 mV | APAplat (hESC-ventricular CMs; CCh 10 μmol/l, Table S9): 109.6±7.5 mV | APD20 (hESC-ventricular CMs; CCh 10 μmol/l, Table S9): 122.9 ± 17.5 ms | APD50 (hESC-ventricular CMs; CCh 10 μmol/l, Table S9): 181.2 ± 27.6 ms | APD90 (hESC-ventricular CMs; CCh 10 μmol/l, Table S9): 230.6 ± 25.7 ms | dV/dtmax (hESC-ventricular CMs; CCh 10 μmol/l, Table S9): 154.8±58.3 V/s

O=C(NCCO)C1CCCN(c2nc(NCc3ccccn3)c3c(-c4ccccc4)csc3n2)C1 (stereo not shown) [XEN-D0101]
change of APA (hESC-atrial CMs; [4]): > 10 mV | change of dV/dtmax (hESC-atrial CMs; [4]): > 8 V/s | elevation of APAplat (hESC-atrial CMs; [4]): > 26 mV | prolongation of APD20 (hESC-atrial CMs; [4]): > 30 ms | prolongation of APD50 (hESC-atrial CMs; [4]): > 35 ms | prolongation of APD90 (hESC-atrial CMs; [4]): > 23 ms | reversibility of AP changes (hESC-atrial CMs; XEN-D0101 3 μmol/l): reversible upon washout | APAmax (hESC-atrial CMs; [5]): 98.9±5.8 mV | APAplat (hESC-atrial CMs; [5]): 86.8±7.4 mV | APD20 (hESC-atrial CMs; [5]): 55.7 ± 16.2 ms | APD50 (hESC-atrial CMs; [5]): 91.3 ± 22.6 ms | APD90 (hESC-atrial CMs; [5]): 156.2 ± 22.8 ms | effect on AP parameters (hESC-ventricular CMs; XEN-D0101 3 μmol/l): did not s ignificantly alter any AP parameter | APAmax (hESC-ventricular CMs; XEN-D0101 3 μmol/l, Table S7): 105.3±5.8 mV | APAplat (hESC-ventricular CMs; XEN-D0101 3 μmol/l, Table S7): 103.7±6.5 mV | APD20 (hESC-ventricular CMs; XEN-D0101 3 μmol/l, Table S7): 101.3 ± 14.0 ms | APD50 (hESC-ventricular CMs; XEN-D0101 3 μmol/l, Table S7): 158.4 ± 18.0 ms | APD90 (hESC-ventricular CMs; XEN-D0101 3 μmol/l, Table S7): 237.4 ± 21.9 ms

COc1ccc(CCO[C@@H]2CCCC[C@H]2N2CC[C@@H](O)C2)cc1OC [vernakalant]
APAmax (hESC-atrial CMs; [6]): 80.3±2.2 mV | APAplat (hESC-atrial CMs; [6]): 73.6±4.9 mV | APD20 (hESC-atrial CMs; [6]): 29.7 ± 4.0 ms | APD50 (hESC-atrial CMs; [6]): 65.4 ± 7.7 ms | APD90 (hESC-atrial CMs; [6]): 177.2 ± 08.2 ms | RMP (hESC-atrial CMs; [6]): -74.2±2.5 mV | dV/dtmax (hESC-atrial CMs; [6]): 40.4±3.8 V/s | increase of APAmax (hESC-atrial CMs; [7]): > 2.5 mV | increase of APAplat (hESC-atrial CMs; [7]): > 20% | prolongation of APD20 (hESC-atrial CMs; [7]): > 7.5 ms | prolongation of APD50 (hESC-atrial CMs; [7]): > 15 ms | prolongation of APD90 (hESC-atrial CMs; [7]): > 22 ms | reversibility of AP changes (hESC-atrial CMs; vernakalant 30 μmol/l): nearly reversible upon washout | APAmax (hESC-ventricular CMs; [8]): 104±2.2 mV | APAplat (hESC-ventricular CMs; [8]): 101.3±2.8 mV | APD20 (hESC-ventricular CMs; [8]): 68.6 ± 06.8 ms | APD90 (hESC-ventricular CMs; [8]): 180.0 ± 17.7 ms | dV/dtmax (hESC-ventricular CMs; [8]): 58.3±6.1 V/s | effect on AP parameters (hESC-ventricular CMs; vernakalant 30 μmol/l): reduced dV/dtmax but without affecting other AP parameters
